Reference: ChEMBL document CHEMBL1201862, “PubChem BioAssay data set” (2004)
Active and inactive are the calls of the source.

Columns and labels:
[1] = biological target: T1, Protein skinhead-1 (Caenorhabditis elegans, UniProt P34707); format: functional
T1 sequence (P34707 whole entry): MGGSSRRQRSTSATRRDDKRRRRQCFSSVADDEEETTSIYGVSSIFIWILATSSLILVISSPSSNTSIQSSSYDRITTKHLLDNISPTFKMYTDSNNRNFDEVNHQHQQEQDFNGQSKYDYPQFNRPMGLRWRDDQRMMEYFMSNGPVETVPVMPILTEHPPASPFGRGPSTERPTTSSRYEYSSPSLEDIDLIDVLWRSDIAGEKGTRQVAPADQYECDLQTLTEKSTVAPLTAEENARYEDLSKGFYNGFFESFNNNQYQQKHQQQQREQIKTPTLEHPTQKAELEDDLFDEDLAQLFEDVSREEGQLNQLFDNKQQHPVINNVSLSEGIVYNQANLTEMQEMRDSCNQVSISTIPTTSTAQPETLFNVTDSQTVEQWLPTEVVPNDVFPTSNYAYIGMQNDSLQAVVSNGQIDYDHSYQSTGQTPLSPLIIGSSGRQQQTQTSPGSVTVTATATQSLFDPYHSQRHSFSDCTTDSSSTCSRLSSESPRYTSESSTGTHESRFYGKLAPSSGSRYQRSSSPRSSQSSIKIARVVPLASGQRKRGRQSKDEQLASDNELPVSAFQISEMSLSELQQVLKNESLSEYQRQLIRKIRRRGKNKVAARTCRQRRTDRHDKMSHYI

[2] = biological target: T2, Short transient receptor potential channel 4 (Mus musculus, UniProt Q9QUQ5); test: block of DAMGO-driven TRPC4 calcium entry – cell-based, HEK293 TRPC4/mu-opioid, Fluo-4 calcium, dose response (AID 434942); format: functional;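 note: potency of inhibitors blocking the TRPC4 calcium response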
T2 sequence (Q9QUQ5 whole entry): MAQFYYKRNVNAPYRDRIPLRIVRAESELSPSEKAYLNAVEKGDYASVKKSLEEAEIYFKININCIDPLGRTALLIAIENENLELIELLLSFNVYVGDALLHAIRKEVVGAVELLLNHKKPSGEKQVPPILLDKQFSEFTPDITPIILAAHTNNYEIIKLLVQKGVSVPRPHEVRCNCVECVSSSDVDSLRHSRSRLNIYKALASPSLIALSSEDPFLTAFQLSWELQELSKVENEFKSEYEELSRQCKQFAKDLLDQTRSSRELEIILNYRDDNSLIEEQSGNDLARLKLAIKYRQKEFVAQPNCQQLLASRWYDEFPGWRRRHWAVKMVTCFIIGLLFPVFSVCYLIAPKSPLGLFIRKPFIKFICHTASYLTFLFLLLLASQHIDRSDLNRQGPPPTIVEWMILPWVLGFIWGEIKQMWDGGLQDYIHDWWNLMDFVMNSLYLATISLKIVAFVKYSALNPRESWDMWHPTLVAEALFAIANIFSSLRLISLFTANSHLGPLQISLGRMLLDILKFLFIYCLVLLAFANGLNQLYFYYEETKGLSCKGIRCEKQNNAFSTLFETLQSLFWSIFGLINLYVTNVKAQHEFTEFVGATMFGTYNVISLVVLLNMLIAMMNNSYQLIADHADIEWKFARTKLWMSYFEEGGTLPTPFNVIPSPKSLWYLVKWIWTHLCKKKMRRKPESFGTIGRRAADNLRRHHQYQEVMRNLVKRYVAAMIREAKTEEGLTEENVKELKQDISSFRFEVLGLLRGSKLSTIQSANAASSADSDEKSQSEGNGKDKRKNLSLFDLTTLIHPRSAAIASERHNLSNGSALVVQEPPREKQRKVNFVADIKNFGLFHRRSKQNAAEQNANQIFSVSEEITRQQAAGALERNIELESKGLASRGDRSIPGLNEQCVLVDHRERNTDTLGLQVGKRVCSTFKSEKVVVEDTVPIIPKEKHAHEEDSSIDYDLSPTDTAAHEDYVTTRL

[3] = biological target: T3, Coagulation factor XII (Homo sapiens, UniProt P00748); format: functional;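 note: activated factor XIIa alpha cleaving a fluorogenic AMC peptide substrate; inhibitor potency from loss of enzyme activity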
T3 sequence (P00748 whole entry): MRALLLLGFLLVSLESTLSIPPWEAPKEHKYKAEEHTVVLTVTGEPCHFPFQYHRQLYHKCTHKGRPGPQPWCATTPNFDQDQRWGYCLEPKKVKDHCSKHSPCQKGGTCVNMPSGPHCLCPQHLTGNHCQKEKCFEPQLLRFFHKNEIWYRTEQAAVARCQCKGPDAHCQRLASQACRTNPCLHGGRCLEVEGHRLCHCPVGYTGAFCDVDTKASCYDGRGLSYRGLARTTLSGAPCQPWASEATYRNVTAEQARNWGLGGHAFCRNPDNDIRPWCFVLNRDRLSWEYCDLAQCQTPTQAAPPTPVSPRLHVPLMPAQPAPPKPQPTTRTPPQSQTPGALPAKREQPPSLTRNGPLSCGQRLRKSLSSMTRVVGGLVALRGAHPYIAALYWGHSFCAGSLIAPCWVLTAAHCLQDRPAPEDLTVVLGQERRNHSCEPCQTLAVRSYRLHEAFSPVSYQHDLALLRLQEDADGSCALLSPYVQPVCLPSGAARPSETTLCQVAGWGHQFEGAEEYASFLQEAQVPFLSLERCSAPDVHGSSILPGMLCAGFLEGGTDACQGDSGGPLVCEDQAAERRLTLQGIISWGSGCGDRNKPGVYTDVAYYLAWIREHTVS

[4] = blockers of HIV-1 envelope-mediated cell-cell fusion – cherry-pick, dose response (AID 652057); format: functional, cell-based
[5] = blockers of HIV-1 ZM109 envelope-driven cell-cell fusion – HeLa effector, CEM target cells, luciferase, cherry-pick, dose response (AID 652058); format: functional, cell-based;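 note: luciferase signal from HIV-1 Env mediated cell-cell fusion of effector and target cells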
[6] = off-target signal loss in HeLa-CEM21 co-culture – HeLa F-luc CTL cells, cherry-picked, counter-screen for HIV-1 Env fusion inhibitor project, dose response (AID 652040); format: functional, cell-based;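 note: potency for signal decrease marking cytotoxic or nonspecific inhibition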
[7] = HIV-1 AD8 envelope cell-cell fusion blockers – cherry-pick, dose response (AID 652062); format: functional, cell-based;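 note: luciferase signal from cell-cell fusion driven by HIV-1 clade B AD8 Env; potency is for inhibitors of fusion seen as a drop in luminescence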
[8] = biological target: Peroxisome proliferator-activated receptor gamma/Nuclear receptor coactivator 2 (Homo sapiens, UniProt P37231); format: functional;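 note: agonist potency for raising coactivator recruitment to the receptor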
[9] = biological target: Peroxisome proliferator-activated receptor gamma/Nuclear receptor coactivator 1 (Homo sapiens, UniProt P37231); format: functional;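 note: agonist potency as compounds enhance coactivator SRC-1 recruitment to PPARgamma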
Sequence of Peroxisome proliferator-activated receptor gamma/Nuclear receptor coactivator 1 (P37231 whole entry): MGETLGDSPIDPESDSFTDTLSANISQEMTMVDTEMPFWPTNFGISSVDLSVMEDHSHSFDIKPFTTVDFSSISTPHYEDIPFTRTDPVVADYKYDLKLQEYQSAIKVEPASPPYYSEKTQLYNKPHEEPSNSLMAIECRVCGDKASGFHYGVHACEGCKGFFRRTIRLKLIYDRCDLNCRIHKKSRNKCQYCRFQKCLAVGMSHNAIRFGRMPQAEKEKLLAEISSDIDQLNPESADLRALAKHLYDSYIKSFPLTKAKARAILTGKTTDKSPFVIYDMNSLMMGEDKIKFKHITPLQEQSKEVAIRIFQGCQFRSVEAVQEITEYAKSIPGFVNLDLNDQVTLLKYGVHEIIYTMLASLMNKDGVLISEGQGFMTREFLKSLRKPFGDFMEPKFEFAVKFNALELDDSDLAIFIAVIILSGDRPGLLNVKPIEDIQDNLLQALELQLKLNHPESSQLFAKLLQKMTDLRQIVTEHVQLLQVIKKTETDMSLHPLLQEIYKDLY
Sequence of Peroxisome proliferator-activated receptor gamma/Nuclear receptor coactivator 1 (Q15788 whole entry, further chain): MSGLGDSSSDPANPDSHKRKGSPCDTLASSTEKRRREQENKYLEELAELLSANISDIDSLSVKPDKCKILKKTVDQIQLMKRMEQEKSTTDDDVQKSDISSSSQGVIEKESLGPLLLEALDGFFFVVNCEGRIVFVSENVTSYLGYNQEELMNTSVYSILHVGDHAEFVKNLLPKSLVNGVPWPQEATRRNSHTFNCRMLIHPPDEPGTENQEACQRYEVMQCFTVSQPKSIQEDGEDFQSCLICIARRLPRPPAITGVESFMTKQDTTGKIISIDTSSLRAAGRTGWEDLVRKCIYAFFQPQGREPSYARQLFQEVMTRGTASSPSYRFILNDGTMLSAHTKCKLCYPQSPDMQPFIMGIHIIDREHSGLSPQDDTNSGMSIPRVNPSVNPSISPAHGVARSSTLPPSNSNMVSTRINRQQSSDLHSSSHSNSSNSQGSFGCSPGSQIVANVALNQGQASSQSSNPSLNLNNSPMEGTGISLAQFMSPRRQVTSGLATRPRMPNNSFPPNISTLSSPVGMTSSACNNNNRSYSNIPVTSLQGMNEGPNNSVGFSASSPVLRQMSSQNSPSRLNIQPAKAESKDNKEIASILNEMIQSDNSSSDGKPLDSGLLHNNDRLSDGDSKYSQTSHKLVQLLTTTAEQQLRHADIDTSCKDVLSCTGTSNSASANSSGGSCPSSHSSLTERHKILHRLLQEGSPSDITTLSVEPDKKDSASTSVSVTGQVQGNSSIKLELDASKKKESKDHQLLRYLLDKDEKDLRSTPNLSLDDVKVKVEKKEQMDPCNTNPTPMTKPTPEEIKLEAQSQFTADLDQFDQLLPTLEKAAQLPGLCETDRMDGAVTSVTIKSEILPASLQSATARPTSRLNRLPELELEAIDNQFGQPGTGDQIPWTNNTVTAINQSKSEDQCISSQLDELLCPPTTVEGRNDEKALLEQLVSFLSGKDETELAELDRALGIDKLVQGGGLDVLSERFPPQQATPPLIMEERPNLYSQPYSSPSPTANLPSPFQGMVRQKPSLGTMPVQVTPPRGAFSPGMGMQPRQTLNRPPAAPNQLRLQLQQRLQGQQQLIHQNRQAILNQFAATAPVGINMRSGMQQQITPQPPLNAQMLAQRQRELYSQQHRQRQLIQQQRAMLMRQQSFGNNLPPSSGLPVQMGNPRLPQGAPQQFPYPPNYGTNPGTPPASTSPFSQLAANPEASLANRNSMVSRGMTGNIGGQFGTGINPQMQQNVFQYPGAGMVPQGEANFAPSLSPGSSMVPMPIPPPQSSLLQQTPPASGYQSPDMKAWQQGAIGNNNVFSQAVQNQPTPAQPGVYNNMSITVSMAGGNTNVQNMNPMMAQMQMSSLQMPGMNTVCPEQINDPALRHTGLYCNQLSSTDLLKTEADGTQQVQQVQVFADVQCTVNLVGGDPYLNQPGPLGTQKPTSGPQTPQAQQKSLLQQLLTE

[10] = biological target: Peroxisome proliferator-activated receptor gamma/Nuclear receptor coactivator 3 (Homo sapiens, UniProt P37231); format: functional;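 note: agonist potency for raising coactivator recruitment to the receptor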
Sequence of Peroxisome proliferator-activated receptor gamma/Nuclear receptor coactivator 3 (P37231 whole entry): as the sequence (P37231 whole entry) above
Sequence of Peroxisome proliferator-activated receptor gamma/Nuclear receptor coactivator 3 (Q9Y6Q9 whole entry, further chain): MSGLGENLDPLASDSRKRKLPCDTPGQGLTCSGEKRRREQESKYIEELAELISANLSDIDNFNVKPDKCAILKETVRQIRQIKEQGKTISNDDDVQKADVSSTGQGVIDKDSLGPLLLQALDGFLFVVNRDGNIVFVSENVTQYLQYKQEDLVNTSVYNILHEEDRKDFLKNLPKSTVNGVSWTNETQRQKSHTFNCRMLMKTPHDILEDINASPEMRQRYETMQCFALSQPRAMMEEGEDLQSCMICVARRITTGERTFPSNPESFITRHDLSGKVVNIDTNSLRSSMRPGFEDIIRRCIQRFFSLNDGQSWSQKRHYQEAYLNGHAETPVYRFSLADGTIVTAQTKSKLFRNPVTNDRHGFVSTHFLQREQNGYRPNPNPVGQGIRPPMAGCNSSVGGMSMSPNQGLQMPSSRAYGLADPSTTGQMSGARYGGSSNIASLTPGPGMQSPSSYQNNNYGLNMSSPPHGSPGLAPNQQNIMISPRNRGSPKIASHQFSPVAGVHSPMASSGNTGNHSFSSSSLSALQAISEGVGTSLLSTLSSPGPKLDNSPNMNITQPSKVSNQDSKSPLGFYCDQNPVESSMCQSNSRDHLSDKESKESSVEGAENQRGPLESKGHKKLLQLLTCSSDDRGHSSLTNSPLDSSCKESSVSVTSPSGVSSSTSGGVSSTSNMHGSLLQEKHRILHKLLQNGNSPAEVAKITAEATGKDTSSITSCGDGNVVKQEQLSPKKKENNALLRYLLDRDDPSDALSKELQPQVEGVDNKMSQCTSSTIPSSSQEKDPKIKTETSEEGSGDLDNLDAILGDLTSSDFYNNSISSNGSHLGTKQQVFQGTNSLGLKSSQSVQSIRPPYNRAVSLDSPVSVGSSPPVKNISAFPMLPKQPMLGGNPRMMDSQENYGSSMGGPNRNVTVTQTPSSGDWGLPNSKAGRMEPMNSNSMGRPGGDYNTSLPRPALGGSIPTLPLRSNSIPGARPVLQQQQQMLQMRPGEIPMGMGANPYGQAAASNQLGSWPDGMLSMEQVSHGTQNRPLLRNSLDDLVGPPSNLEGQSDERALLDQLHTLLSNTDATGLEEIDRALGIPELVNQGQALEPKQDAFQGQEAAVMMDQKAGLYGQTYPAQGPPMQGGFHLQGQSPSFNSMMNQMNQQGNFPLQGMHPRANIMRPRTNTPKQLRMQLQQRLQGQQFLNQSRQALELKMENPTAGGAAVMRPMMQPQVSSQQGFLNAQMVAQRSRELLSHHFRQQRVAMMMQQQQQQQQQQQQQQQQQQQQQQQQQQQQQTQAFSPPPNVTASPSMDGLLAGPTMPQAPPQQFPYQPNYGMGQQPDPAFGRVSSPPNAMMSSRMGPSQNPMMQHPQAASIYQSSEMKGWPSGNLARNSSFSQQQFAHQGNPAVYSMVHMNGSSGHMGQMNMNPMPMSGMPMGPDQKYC

[11] = tested on: BJ; test: BJ-TERT fibroblast viability loss – cell-based, RAS-independent, luminescence, dose response (AID 1933); format: functional; conditions: Homo sapiens
[12] = tested on: BJ; test: cells; format: functional, cell-based; conditions: Homo sapiens
[13] = tested on: BJ; test: BJ-TERT-LT-ST fibroblast viability loss – cell-based, RAS-independent, luminescence, dose response (AID 1935); format: functional; conditions: Homo sapiens;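 note: BJ fibroblasts immortalized with TERT plus LT and ST oncogenes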
[14] = DRD fibroblast viability loss – cell-based, non-viral oncogenic, luminescence, dose response (AID 1934); format: functional; conditions: Homo sapiens
[15] = Luminescence Cell-Based Dose Response HTS to Identify Activators of Luciferase Translation or Activity in H4 […] Cells. [Related pubchem assays: 1829 (Project Summary), 1814 (Primary HTS)]; format: functional
[16] = tested on: H4; test: Luminescence Cell-Based Dose Response HTS to Identify Activators of 5'UTR Stem-Loop Driven Prion Protein mRNA Translation in H4 Neuroglioblastoma Cells. [Related pubchem assays: 1829 (Project Summary), 1814 (Primary HTS)]; format: functional; conditions: Homo sapiens
[17] = biological target: Cytochrome P450 3A4 (Homo sapiens, UniProt P08684);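 note: CYP3A4 tested as one member of a cytochrome P450 panel screen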
Sequence of Cytochrome P450 3A4 (P08684 whole entry): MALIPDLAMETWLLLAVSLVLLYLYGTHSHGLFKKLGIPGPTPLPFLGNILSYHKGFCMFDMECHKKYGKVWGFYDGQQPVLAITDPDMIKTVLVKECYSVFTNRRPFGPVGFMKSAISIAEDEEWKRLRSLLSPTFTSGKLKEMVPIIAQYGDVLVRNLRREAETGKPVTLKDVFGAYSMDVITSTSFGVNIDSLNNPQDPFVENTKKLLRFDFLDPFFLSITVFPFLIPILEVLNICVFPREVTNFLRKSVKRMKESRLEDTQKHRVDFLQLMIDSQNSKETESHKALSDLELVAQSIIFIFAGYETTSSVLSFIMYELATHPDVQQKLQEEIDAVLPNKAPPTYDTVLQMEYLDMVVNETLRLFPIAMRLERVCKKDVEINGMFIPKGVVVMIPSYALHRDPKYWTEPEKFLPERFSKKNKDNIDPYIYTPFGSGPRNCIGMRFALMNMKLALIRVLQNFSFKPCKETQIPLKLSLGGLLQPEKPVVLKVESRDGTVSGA

[18] = intracellular Trypanosoma cruzi inhibitors in host cells – cell-based, plate reader, cherry-pick samples, set 3, dose response (AID 651818); format: functional;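 note: compounds incubated with infected cells for about four days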
[19] = biological target: Paired box protein Pax-8 (Homo sapiens, UniProt Q06710); test: PAX8 transcriptional activity inhibition in RMG-I – RMG-I cells, luciferase, cherry-pick, dose response (AID 687027); format: functional, cell-based;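 note: luciferase reporter driven by Pax8 target thyroperoxidase promoter measured by SteadyGlo luminescence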
Sequence of Paired box protein Pax-8 (Q06710 whole entry): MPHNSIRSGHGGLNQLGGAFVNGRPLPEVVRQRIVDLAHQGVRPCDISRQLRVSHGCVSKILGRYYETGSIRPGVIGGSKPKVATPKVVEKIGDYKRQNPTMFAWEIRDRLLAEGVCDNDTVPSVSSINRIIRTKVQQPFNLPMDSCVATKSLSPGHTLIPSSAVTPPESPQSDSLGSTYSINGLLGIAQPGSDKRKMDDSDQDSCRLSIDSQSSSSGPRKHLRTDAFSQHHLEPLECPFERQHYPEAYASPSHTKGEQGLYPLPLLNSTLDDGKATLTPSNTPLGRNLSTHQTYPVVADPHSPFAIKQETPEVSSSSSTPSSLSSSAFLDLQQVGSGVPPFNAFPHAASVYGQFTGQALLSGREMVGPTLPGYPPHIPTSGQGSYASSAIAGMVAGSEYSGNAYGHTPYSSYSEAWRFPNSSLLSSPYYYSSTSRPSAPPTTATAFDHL

## CC(=O)Nc1cc(NC(C)=O)cc(C(=O)OCC(=O)N2CC(C)OC(C)C2)c1 (configuration not stated)
[1]
  IC50: > 100 µM (inactive)

## Clc1ccc(CSc2ccc(-c3cccnc3)nn2)cc1
[1]
  IC50: 83.9 µM (inactive)

## Cc1ccc(-n2cccn2)c(CN2CCCC(C(=O)c3ccc4c(c3)OCO4)C2)c1 (configuration not stated)
[2]
  EC50: 7.5 µM (active)

## FCCCOc1ccc(-c2ccnc(-c3ccccc3)n2)cc1
[1]
  IC50: 52.3 µM (inactive)

## CCc1nnc(NC(=O)CCC(=O)N2CCN(CCOc3ccc(C)cc3)CC2)s1
[3]
  IC50: > 50 µM (inactive)

## O=C(Nc1ccc(F)cc1)C1CCCN1S(=O)(=O)c1ccc(Br)cc1 (configuration not stated)
[4]
  AC50: 7.75 µM (active)
[5]
  AC50: 6.89 µM (active)
[6]
  AC50: 14.5 µM (active)
[7]
  AC50: 16.3 µM (active)

## COc1ccc(Cl)cc1N=C(S)NNC(=O)C1(C)CC1(Cl)Cl (configuration not stated)
[3]
  IC50: > 50 µM (inactive)

## COc1cccc(C2=NN(C(=O)c3ccco3)C(c3ccco3)C2)c1 (configuration not stated)
[2]
  EC50: 1.88 µM (active)

## COc1ccc(C2CC(=O)c3c([nH]c(C(=O)OC(C)C)c3C)C2)cc1OC (configuration not stated)
[8]
  EC50: > 79.4 µM (not active)
[9]
  EC50: > 79.4 µM (not active)
[10]
  EC50: > 79.4 µM (not active)

## CCCn1c(=S)[nH]c2cc(C(=O)N3CCCC(C(=O)OCC)C3)ccc2c1=O (configuration not stated)
[6]
  AC50: > 70 µM (inactive)
[7]
  AC50: 23.2 µM (active)

## O=C1c2cccnc2C(Nc2ccc(S(=O)(=O)N3CCCCC3)cc2)N1Cc1ccccc1 (configuration not stated)
[4]
  AC50: 7.23 µM (active)
[6]
  AC50: 58.9 µM (active)

## CC(C)(C)n1nnnc1C(c1cccs1)N(Cc1cccnc1)Cc1ccco1 (configuration not stated)
[4]
  AC50: 3.99 µM (active)
[5]
  AC50: 4.74 µM (active)
[6]
  AC50: 15.2 µM (active)
[7]
  AC50: 7.08 µM (active)

## COc1ccc(C(=O)c2cc([N+](=O)[O-])ccc2N2CCCC2)cc1
[11]
  EC50: 13 µM (active)
[12]
  EC50: 58.2 µM (active)
[13]
  EC50: 3.87 µM (inconclusive)
[14]
  EC50: 3.06 µM (active)

## O=C(COC(=O)C1CC1)Nc1nc(-c2ccc(F)c(F)c2)cs1
[2]
  EC50: 2.99 µM (active)

## Fc1cccc(CSc2ccc(-c3ccco3)nn2)c1
[15]
  EC50: 49.2 µM (active)
[16]
  EC50: 8.43 µM (active)
[1]
  IC50: > 100 µM (inactive)

## CCOCCCn1cnc2c(c1=O)c1nc3ccccc3nc1n2-c1ccccc1
[3]
  IC50: > 50 µM (inactive)
[17]
  AC50: 20 µM (inconclusive)

## COC(=O)c1cccc(NC(=O)CSc2nnc[nH]2)c1
[3]
  IC50: > 50 µM (inactive)

## COc1ccc(CN(Cc2ccc(OC)cc2)C(=O)c2cccs2)cc1
[3]
  IC50: > 50 µM (inactive)

## Cc1nc2ccccc2n1CCOc1ccc(F)cc1
[2]
  EC50: 0.376 µM (active)

## CCc1nnc(NC(=O)CSc2ncnc3c2oc2ccccc23)s1
[8]
  EC50: 18.3 µM (not active)
[9]
  EC50: 22.6 µM (not active)
[10]
  EC50: 23.5 µM (not active)

## Nc1nc(C2CCCN2S(=O)(=O)c2ccc(Cl)cc2)cs1 (configuration not stated)
[8]
  EC50: > 79.4 µM (not active)
[9]
  EC50: > 79.4 µM (not active)
[10]
  EC50: > 79.4 µM (not active)

## O=C(c1ccccc1)c1cc([N+](=O)[O-])ccc1N1CCCC1
[11]
  EC50: > 150 µM (not active)
[12]
  EC50: > 150 µM (not active)
[13]
  EC50: > 150 µM (not active)
[14]
  EC50: > 150 µM (not active)

## CCCC(=O)NNC(=O)c1ccoc1C
[3]
  IC50: > 50 µM (inactive)

## C[C@@H]1CCCCO[C@H](CN(C)Cc2ccc(C(F)(F)F)cc2)[C@@H](C)CN([C@H](C)CO)C(=O)c2cc(NC(=O)Nc3ccccc3)ccc2O1
[18]
  AC50: 4.7 µM (active)

## C[C@@H]1CCCCO[C@@H](CN(C)Cc2ccc(C(F)(F)F)cc2)[C@@H](C)CN([C@H](C)CO)C(=O)c2cc(NC(=O)Nc3ccc(F)cc3)ccc2O1
[18]
  AC50: 6.87 µM (active)

## C[C@@H]1CCCCO[C@@H](CN(C)C(=O)NC2CCCCC2)[C@@H](C)CN([C@H](C)CO)C(=O)c2cc(NC(=O)Nc3ccc(C(F)(F)F)cc3)ccc2O1
[18]
  AC50: 4.12 µM (active)

## Cc1cccc(S(=O)(=O)N2CC[C@@H]3[C@H](CO)Nc4ccc(C5=CCCCC5)cc4[C@@H]32)c1
[19]
  AC50: 10.9 µM (active)

## O=C(C[C@@H]1CC[C@@H]2[C@H](COC[C@H](O)CN2S(=O)(=O)c2cccc(Cl)c2)O1)Nc1ccc(-c2ccccc2)cc1
[19]
  AC50: 9.87 µM (active)

## C[C@H]1CN([C@@H](C)CO)C(=O)c2cc(NS(=O)(=O)c3ccc(F)cc3)ccc2O[C@H]1CN(C)S(=O)(=O)c1ccc(F)cc1
[5]
  AC50: 42.4 µM (active)

## C[C@@H]1CCCCO[C@H](CN(C)Cc2ccncc2)[C@H](C)CN([C@@H](C)CO)C(=O)c2cc(NC(=O)Nc3ccc(C(F)(F)F)cc3)ccc2O1
[19]
  AC50: 13.6 µM (active)

## COc1cccc2cc(C(N)=O)/c(=N\NC(=O)c3ccccc3)oc12
[2]
  EC50: 0.188 µM (active)

## CCOC(=O)c1s/c(=N\C(=O)c2ccc(OC(C)C)cc2)n(C)c1C
[8]
  EC50: 16.2 µM (not active)
[9]
  EC50: 18.3 µM (not active)
[10]
  EC50: 20.3 µM (not active)
